{"source": "patent US9522935B2", "about": "“Commands and method of treating cancer via RHO pathway” (priority 2013, dated 2016)", "key": {"[1]": {"system": "Jak/STAT phosphorylation in PancI cells", "experiment": "Western Blotting of signal pathway proteins in PancI cells", "type": "cell-based, human", "method": "The Jak/STAT channel plays an important role in cell growth, proliferation, and survival. Using Western Blotting, the present invention studied the effect of LD030 on Jak/STAT phosphorylation in PancI cells.\nThe cells were treated with LD030 at concentrations of 20 μM and 50 μM, for 4 hours, 8 hours, 24 hours, and 48 hours. After the treatment, the cells were collected and subject to lysis in the buffer (50 mM Tris-HCl pH7.5, 100 mM NaCl, 5 mM EDTA, 40 mM NaP2O7, 1% Triton X-100, 1 mM dithiothreitol, 200 μM Na3VO4, 100 μM phenylmethysufonyl fluoride fluoride, 2 μg/ml leupeptin, 4 μg/ml aprotinin and 0.7 μg/ml pepstatin). Analysis of stained protein (BioRad, 500-0006) was conduct for adjusting the protein concentration. Same quantity of protein (50 μg/lane) was used for 10% SDS-polyacrylamide gel electrophoresis, and then electrically transferred to the polyvinylidene fluoride (PVDF) membrane. The membrane was treated with antibodies specific to p-Jak2 (Cell signaling, 3771), p-Stat3 (Cell signaling, 9131) and α-tubulin (Zymed Laboratories, 32-2500). Visible protein bands were detected with an enhanced chemiluminescence (ECL Plus) detection system (Amersham).\nThe protein electrophoresis results in the above described experiments are shown FIGS. 23 and 24 for LD030 treatments at 20 μM and 50 μM, respectively. […] The expression of tubulin as internal reference was basically unchanged."}, "[2]": {"system": "pancreatic cancer cell lines", "experiment": "Nude mouse model of pancreatic cancer (xenograft), tumor size", "type": "in vivo, NOD/SCID mice", "details": "43 days; for tumor volume reduced: FIG. 15", "method": "Two strains of pancreatic cancer cell lines were selected to be grafted to nonobese diabetic/severe combined immunodeficient (NOD/SCID) mice, and the tumor was inoculated in mouse ventral sides. About two weeks, they were used as a nude mouse model of pancreatic cancer. […] Each of the above groups. The treatment continued for 43 days (gemcitabine alone group 2 times a week; other groups 3 times a week), and then tumor size was recorded as shown in FIG. 16. […] Further experiments were conducted to study the effects of the combinational use of LD030 with gemcitabine as compared being used alone on tumor inhibition. Four treatment groups were set up: (a) blank control, (2) gemcitabine (25 mg/kg/time, 2 times a week), (3) LD030 (0.5 mg/kg/time, 3 times a week), (4) LD030 (0.5 mg/kg/time, 3 times a week) together with gemcitabine (25 mg/kg/time, 2 times a week)."}, "[3]": {"details": "20 μM, at 24 hours and 48 hours, versus blank control"}, "[4]": {"details": "50 μM, at 24 hours and 48 hours, versus blank control"}}}
{"compound": "CC(=O)OC(C)(C)C(=O)CCC(C)C1CC[C@@]2(C)C34CC[C@H]5C(C)(C)[C@@H](O)CC[C@]5(C)C3(CC[C@]12C)O4", "note": "(some centres unmarked) [LD030]", "values": [{"measurement": "p-jak2", "setting": "[1]; [3]", "value": "significantly reduced"}, {"measurement": "p-stat3 (tyr705)", "setting": "[1]; [3]", "value": "significantly reduced"}, {"measurement": "p-JNK", "setting": "[1]; 20 μM, versus blank control", "value": "up-regulates"}, {"measurement": "p-ERK", "setting": "[1]; [4]", "value": "significantly reduced"}, {"measurement": "p-c-raf", "setting": "[1]; [4]", "value": "significantly reduced"}, {"measurement": "expression of Cyclin D1", "setting": "[1]; 50 μM, at 48 hours", "value": "decreased"}, {"measurement": "expression of p-JNK", "setting": "[1]; 50 μM, versus blank control", "value": "increased"}, {"measurement": "expression of p-p38", "setting": "[1]; 50 μM, versus blank control", "value": "increased"}, {"measurement": "tumor volume reduced", "setting": "[2]; 0.5 mg/kg/time LD030, 3 time a week", "value": 21, "unit": "%"}, {"measurement": "tumor volume reduced", "setting": "[2]; 1 mg/kg/time LD030, 3 time a week", "value": 62, "unit": "%"}, {"measurement": "tumor size reduced", "setting": "[2]; LD030 0.5 mg/kg/time, 3 times a week, FIG. 17", "value": 21, "unit": "%"}]}
